Measurements published in patent US20080287526A1, “Pharmaceuticals for treating or preventing oral diseases” (HAWLEY & HAZEL (BVI) COMPANY LIMITED, priority 2007, published 2008).

Tests used:
GM-CSF = assay: Anti-inflammatory effect in KB cells, LUMINEX analysis of GM-CSF; assay type: cell-based, human; settings: KB cell supernatant; the larger the value, the stronger the anti-inflammatory ability; test concentration not given
Experimental: (§1) Anti-inflammatory activity was assessed using the KB cell (the epidermis cancer cell in human oral cavity). During the experiment, the KB cell inoculated in the cultivating plate was treated with or without positive control or compound Morusin A. After the treatment, the supernatant of the cultivating medium was collected and stored in −80° C. refrigerator. Inflammation was assessed by measuring several inflammation markers: Prostaglandin E2 (PGE2) in the supernatant was detected by Enzyme-linked immunosorbent assay, and LUMINEX™ multifunctional liquid-phase chip analysis system was used for the detection of granulocyte monocyte colony stimulating factor (GM-CSF), tumor necrosis factor-alpha (TNF-α), and interleukins 1-beta and 6 (IL-1β and IL-6).
(§2) LUMINEX™ multifunctional liquid-phase chip analyses of GM-CSF, TNF-α, IL-1 and IL-6: The 96-well plate was enclosed with enclosing liquid for 30 minutes. Fluorescent microspheres were added into the 96-well plate after dilution. The standard and the samples to be measured were added, and incubated overnight at 4° C. The next day, the supernatant was discarded and 50 μL GM-CSF, TNF-α, IL-1β and IL-6 antibodies were added to each well. After being rinsed for 4 times, the 96-well plate was placed in a shaking table, which was in ambient temperature, to keep the plate away from light for one hour. […]

[1] = system: Porphyromonas gingivalis ATCC 33277; assay: Antibacterial MIC, micro-dilution method; assay type: cell-based; settings: minimum inhibitive concentration; anaerobic; 2-fold dilution series 250-0.12 mg/L, ceiling 250 ppm; 37 °C, 18-24 h; unit not given
Experimental: (§3) A single colony was picked from the Trypticase Digested Soybean peptone agar blood plate (TSA5B) of ordinarily stored bacteria species and used to inoculate corresponding broth culture medium, which was cultivated in a microaerobic environment (P.g needs anaerobic cultivation) with 95% air, 5% CO2 at 37.0° C.±1.0° C., wherein S.m was cultivated for 18-24 h, and the remaining two species were cultivated for 40-48 h. Then corresponding broth cultivate medium was used to adjust the turbidity of the bacteria suspension to 0.5^# McFarland standard, equivalent to 1.0×10^8 CFU/mL.
(§4) The operating steps were:
(§5) a. Preparation of the stock solution of antibacterial pharmaceutical: 1% stock solution of various antibacterial pharmaceuticals was prepared with 100% pure ethanol as solvent. The prepared stock solution was filtered to eliminate bacteria, and was distributed into small portions to be used.
(§6) b. Range of measured concentration: the present experiment used 250 ppm as the ceiling measured concentration of the anti-bacterial pharmaceutical.
(§7) c. Measuring method: micro-dilution method.
(§8) First, 100 μL broth medium was added to each well of the 96-well plate, then 100 μL sterile anti-bacteria pharmaceutical solution, which was diluted 10-fold (1000 mg/L), was added to each well of the first column. Then each well of the first column was mixed repeatedly for 7-8 times using a multi-channel micropipet, and 100 μL sample was transferred to the second column after sufficiently mixing the pharmaceutical with TSB. After being mixed similarly for 7-8 times, 100 μL sample was transferred to the third column, and likewise to the wells of the remaining columns. Thus the concentration of the pharmaceutical was gradiently diluted 2-fold between the columns, from 500 mg/L in the first column to 0.24 mg/L in the last column (the 12th column).
(§9) The bacteria to be tested and the standard bacteria were prepared using the same method as above. […] 0.12 mg/L, and the final inoculation quantity was about […] or 5×10^6 bacteria in each well. […]

[2] = system: Actinomyces viscosus ATCC 27044; assay: Antibacterial MIC, micro-dilution method; assay type: cell-based; settings: minimum inhibitive concentration; 2-fold dilution series 250-0.12 mg/L, ceiling 250 ppm; 37 °C, 18-24 h; unit not given
Experimental: as §3, §4, §5, §6, §7, §8, §9

[3] = system: Streptococcus mutans ATCC 25175; assay: Antibacterial MIC, micro-dilution method; assay type: cell-based; settings: minimum inhibitive concentration; 2-fold dilution series 250-0.12 mg/L, ceiling 250 ppm; 37 °C, 18-24 h; unit not given
Experimental: as §3, §4, §5, §6, §7, §8, §9

IL-1β = assay: Anti-inflammatory effect in KB cells, LUMINEX analysis of IL-1β; assay type: cell-based, human; settings: KB cell supernatant; the larger the value, the stronger the anti-inflammatory ability; test concentration not given
Experimental: as §1, §2

IL-6 = assay: Anti-inflammatory effect in KB cells, LUMINEX analysis of IL-6; assay type: cell-based, human; settings: KB cell supernatant; the larger the value, the stronger the anti-inflammatory ability; test concentration not given
Experimental: as §1, §2

TNF-α = assay: Anti-inflammatory effect in KB cells, LUMINEX analysis of TNF-α; assay type: cell-based, human; settings: KB cell supernatant; the larger the value, the stronger the anti-inflammatory ability; test concentration not given
Experimental: as §1, §2

## CC1=C[C@H]2c3c(O)cc(-c4cc5ccc(O)cc5o4)cc3O[C@]3(c4ccc(O)cc4O)Oc4cc(O)ccc4[C@H](C1)[C@@H]23 [Morusin A]
GM-CSF
  anti-inflammatory effect, GM-CSF: 11%
[1]
  MIC, P. g ATCC 33277: 15.6
[2]
  MIC, A. v ATCC 27044: 3.9
[3]
  MIC, S. m ATCC 25175: 3.9
IL-1β
  anti-inflammatory effect, IL-1β: 23%
IL-6
  anti-inflammatory effect, IL-6: 53%
TNF-α
  anti-inflammatory effect, TNF-α: 93%
